In patent US20240041877A1, “DOSAGE REGIME AND METHOD FOR TREATING PULMONARY ARTERIAL HYPERTENSION” (Altavant Sciences GmbH, priority 2019, published 2024):

Assay: Part 2 (MAD): plasma pharmacokinetics after BID oral KAR5585 for 14 days (incl. accumulation ratios and dose proportionality)
[1] = KAR5585 200 mg BID fed, Cohort 3, Day 1 PM, mean
[2] = KAR5585 200 mg BID fed, Cohort 3, Day 7 AM, Day 7/Day 1 accumulation ratio, geo. mean
[3] = KAR5585 200 mg BID fed, Cohort 3, Day 7 AM, Day 7/Day 1 accumulation ratio, mean
[4] = KAR5585 200 mg BID fed, Cohort 3, Day 7 AM, geo. mean
[5] = KAR5585 200 mg BID fed, Cohort 3, Day 7 AM, mean
[6] = KAR5585 200 mg BID fed, Cohort 3, Day 7 PM, Day 7/Day 1 accumulation ratio, geo. mean
[7] = KAR5585 200 mg BID fed, Cohort 3, Day 7 PM, Day 7/Day 1 accumulation ratio, mean
[8] = KAR5585 200 mg BID fed, Cohort 3, Day 7 PM, geo. mean
[9] = KAR5585 200 mg BID fed, Cohort 3, Day 7 PM, mean
[10] = KAR5585 200 mg BID fed, Cohort 3, Day 14 AM, Day 14/Day 1 accumulation ratio, geo. mean
[11] = KAR5585 200 mg BID fed, Cohort 3, Day 14 AM, Day 14/Day 1 accumulation ratio, mean
[12] = KAR5585 200 mg BID fed, Cohort 3, Day 14 AM, geo. mean
[13] = KAR5585 200 mg BID fed, Cohort 3, Day 14 AM, mean
[14] = KAR5585 400 mg BID fed, Cohort 4, Day 1 AM, geo. mean
[15] = KAR5585 400 mg BID fed, Cohort 4, Day 1 AM, mean
[16] = KAR5585 400 mg BID fed, Cohort 4, Day 1 PM, geo. mean
[17] = KAR5585 400 mg BID fed, Cohort 4, Day 1 PM, mean
[18] = KAR5585 400 mg BID fed, Cohort 4, Day 7 AM, Day 7/Day 1 accumulation ratio, geo. mean
[19] = KAR5585 400 mg BID fed, Cohort 4, Day 7 AM, Day 7/Day 1 accumulation ratio, mean
[20] = KAR5585 400 mg BID fed, Cohort 4, Day 7 AM, geo. mean
[21] = KAR5585 400 mg BID fed, Cohort 4, Day 7 AM, mean
[22] = KAR5585 400 mg BID fed, Cohort 4, Day 7 PM, Day 7/Day 1 accumulation ratio, geo. mean
[23] = KAR5585 400 mg BID fed, Cohort 4, Day 7 PM, Day 7/Day 1 accumulation ratio, mean
[24] = KAR5585 400 mg BID fed, Cohort 4, Day 7 PM, geo. mean
[25] = KAR5585 400 mg BID fed, Cohort 4, Day 7 PM, mean
[26] = KAR5585 400 mg BID fed, Cohort 4, Day 14 AM, Day 14/Day 1 accumulation ratio, geo. mean
[27] = KAR5585 400 mg BID fed, Cohort 4, Day 14 AM, Day 14/Day 1 accumulation ratio, mean
[28] = KAR5585 400 mg BID fed, Cohort 4, Day 14 AM, geo. mean
[29] = KAR5585 400 mg BID fed, Cohort 4, Day 14 AM, mean
[30] = power model, PK Day 1 (AM), 100 to 400 mg KAR5585 repeat oral doses, fed
[31] = power model, PK Day 7 (AM), 100 to 400 mg KAR5585 repeat oral doses, fed
[32] = power model, PK Day 14 (AM), 100 to 400 mg KAR5585 repeat oral doses, fed

Excerpt: Food effect was to be evaluated in Part 1, Period 2.
Pharmacokinetic data were to be summarized descriptively.

## Nc1nc(O[C@H](c2ccc(Cl)cc2-c2ccccc2)C(F)(F)F)cc(N2CCC3(CC2)CN[C@H](C(=O)O)C3)n1 [KAR5417, (S)-8-(2-amino-6-((R)-1-(5-chloro-[1,1T-biphenyl]-2-yl)-2,2,2-trifluoroeth-oxy)pyrimidin-4-yl)-2,8-diazaspiro[4.5]decane-3-carboxylic acid]
KAR5585 200 mg BID fed, Cohort 3, Day 1 PM, geo. mean
  t1/2: 5.95 h
[1]
  AUC0-12: 2000 ng·h/mL
  AUC0-24: 3700 ng·h/mL
  AUC0-24/D: 9.26 (hr*ng/ml)/mg
  AUC0-∞: 2720 ng·h/mL
  C12: 112 ng/mL
  Cmax: 322 ng/mL
  Cmax/D: 1.61 (ng/ml)/mg
  t1/2: 6.03 h
KAR5585 200 mg BID fed, Cohort 3, Day 1 PM, median
  Tmax: 4.0 h
[2]
  RAUC0-12: 1.33
  RCmax: 0.989
[3]
  RAUC0-12: 1.34
  RCmax: 1.00
[4]
  AUC0-12: 2150 ng·h/mL
  AUC0-∞: 2610 ng·h/mL
  C12: 87.2 ng/mL
  Cmax: 332 ng/mL
  Cmax/D: 1.66 (ng/ml)/mg
  t1/2: 4.57 h
[5]
  AUC0-12: 2300 ng·h/mL
  AUC0-∞: 2800 ng·h/mL
  C12: 93.1 ng/mL
  Cmax: 359 ng/mL
  Cmax/D: 1.80 (ng/ml)/mg
  t1/2: 4.61 h
[6]
  RAUC0-12: 0.955
  RCmax: 0.645
[7]
  RAUC0-12: 0.984
  RCmax: 0.711
[8]
  AUC0-12: 1490 ng·h/mL
  AUC0-24: 3620 ng·h/mL
  AUC0-24/D: 9.05 (hr*ng/ml)/mg
  AUC0-∞: 2270 ng·h/mL
  C12: 131 ng/mL
  Cmax: 212 ng/mL
  Cmax/D: 1.06 (ng/ml)/mg
  t1/2: 6.48 h
[9]
  AUC0-12: 1540 ng·h/mL
  AUC0-24: 3810 ng·h/mL
  AUC0-24/D: 9.52 (hr*ng/ml)/mg
  AUC0-∞: 2280 ng·h/mL
  C12: 145 ng/mL
  Cmax/D: 1.11 (ng/ml)/mg
  t1/2: 6.64 h
[10]
  RAUC0-12: 1.07
  RCmax: 0.854
[11]
  RAUC0-12: 1.09
  RCmax: 0.901
[12]
  AUC0-12: 1670 ng·h/mL
  AUC0-24: 2200 ng·h/mL
  AUC0-∞: 3250 ng·h/mL
  C12: 59.6 ng/mL
  Cmax: 281 ng/mL
  Cmax/D: 1.40 (ng/ml)/mg
  t1/2: 24.1 h
[13]
  AUC0-12: 1820 ng·h/mL
  AUC0-24: 2380 ng·h/mL
  AUC0-∞: 3480 ng·h/mL
  C12: 63.5 ng/mL
  C24: 32.6 ng/mL
  Cmax: 319 ng/mL
  Cmax/D: 1.59 (ng/ml)/mg
  t1/2: 25.0 h
[14]
  AUC0-12: 2920 ng·h/mL
  AUC0-∞: 3400 ng·h/mL
  C12: 90.2 ng/mL
  Cmax: 532 ng/mL
  Cmax/D: 1.33 (ng/ml)/mg
  t1/2: 3.71 h
[15]
  AUC0-12: 3280 ng·h/mL
  AUC0-∞: 3780 ng·h/mL
  C12: 99.3 ng/mL
  Cmax: 595 ng/mL
  Cmax/D: 1.49 (ng/ml)/mg
  t1/2: 3.80 h
[16]
  AUC0-12: 4340 ng·h/mL
  AUC0-24: 7430 ng·h/mL
  AUC0-24/D: 9.28 (hr*ng/ml)/mg
  AUC0-∞: 6860 ng·h/mL
  C12: 242 ng/mL
  Cmax: 670 ng/mL
  Cmax/D: 1.68 (ng/ml)/mg
  t1/2: 5.3 h
[17]
  AUC0-12: 4590 ng·h/mL
  AUC0-24: 7870 ng·h/mL
  AUC0-24/D: 9.83 (hr*ng/ml)/mg
  AUC0-∞: 7090 ng·h/mL
  C12: 252 ng/mL
  Cmax: 739 ng/mL
  Cmax/D: 1.85 (ng/ml)/mg
  t1/2: 5.31 h
[18]
  RAUC0-12: 2.15
  RCmax: 1.81
[19]
  RAUC0-12: 2.38
  RCmax: 2.00
[20]
  AUC0-12: 6250 ng·h/mL
  AUC0-∞: 7480 ng·h/mL
  C12: 222 ng/mL
  Cmax: 960 ng/mL
  Cmax/D: 2.40 (ng/ml)/mg
  t1/2: 3.89 h
[21]
  AUC0-12: 6600 ng·h/mL
  AUC0-∞: 7840 ng·h/mL
  C12: 240 ng/mL
  Cmax: 1000 ng/mL
  Cmax/D: 2.51 (ng/ml)/mg
  t1/2: 3.94 h
[22]
  RAUC0-12: 1.50
  RCmax: 1.08
[23]
  RAUC0-12: 1.63
  RCmax: 1.18
[24]
  AUC0-12: 4360 ng·h/mL
  AUC0-24: 10600 ng·h/mL
  AUC0-24/D: 13.3 (hr*ng/ml)/mg
  AUC0-∞: 6450 ng·h/mL
  C12: 356 ng/mL
  Cmax: 574 ng/mL
  Cmax/D: 1.44 (ng/ml)/mg
  t1/2: 5.08 h
[25]
  AUC0-12: 4610 ng·h/mL
  AUC0-24: 11200 ng·h/mL
  AUC0-24/D: 14.0 (hr*ng/ml)/mg
  AUC0-∞: 6520 ng·h/mL
  C12: 396 ng/mL
  Cmax/D: 1.52 (ng/ml)/mg
  t1/2: 5.10 h
[26]
  RAUC0-12: 1.43
  RCmax: 1.35
[27]
  RAUC0-12: 1.65
  RCmax: 1.54
[28]
  AUC0-12: 4160 ng·h/mL
  AUC0-24: 5410 ng·h/mL
  AUC0-24/D: 13.5 (hr*ng/ml)/mg
  AUC0-∞: 8120 ng·h/mL
  C12: 140 ng/mL
  C24: 73.3 ng/mL
  Cmax: 717 ng/mL
  Cmax/D: 1.79 (ng/ml)/mg
  t1/2: 30.4 h
[29]
  AUC0-24: 5660 ng·h/mL
  AUC0-24/D: 14.1 (hr*ng/ml)/mg
  AUC0-∞: 8500 ng·h/mL
  C12: 149 ng/mL
  Cmax: 749 ng/mL
  Cmax/D: 1.87 (ng/ml)/mg
  t1/2: 30.6 h
[30]
  Dose proportionality analysis, AUC0-12: Intercept estimate: 0.828
  Dose proportionality analysis, AUC0-inf: Intercept estimate: 1.12
  Dose proportionality analysis, Cmax: Intercept estimate: 0.167
[31]
  Dose proportionality analysis, AUC0-12: Intercept estimate: 2.63
  Dose proportionality analysis, Cmax: Intercept estimate: 0.393
[32]
  Dose proportionality analysis, AUC0-12: Intercept estimate: 5.18
  Dose proportionality analysis, Cmax: Intercept estimate: 0.877
